Assay results published in ChEMBL document CHEMBL1201862, “PubChem BioAssay data set” (2004).
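In this assay, cells in 96-well plates receive the compound at five concentrations for 48 hours. Endpoints are linearly interpolated between the surrounding concentrations. The concentration for 50% growth inhibition is given as GI50.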 The source made the active and inactive calls. Rule as the data show it: active = GI50 up to about 1.1 µM and inactive = higher.

Legend:
Test in all cases: growth of human tumour cells (NCI), 48 h
[1] = tested on: UACC-62
[2] = tested on: OVCAR-8
[3] = tested on: MDA-MB-231
[4] = tested on: SR
[5] = tested on: ACHN
[6] = tested on: MDA-MB-435
[7] = tested on: SF-295
[8] = tested on: T47D
[9] = tested on: KM12
[10] = tested on: COLO 205
[11] = tested on: HOP-92
[12] = tested on: DU-145
[13] = tested on: A498
[14] = tested on: SK-MEL-28
[15] = tested on: UO-31
[16] = tested on: LOX IMVI
[17] = tested on: BT-549
[18] = tested on: OVCAR-5
[19] = tested on: SNB-75
[20] = tested on: SF-268
[21] = tested on: NCI-H460
[22] = tested on: K562
[23] = tested on: HOP-62
[24] = tested on: M14
[25] = tested on: SK-MEL-5
[26] = tested on: SW-620
[27] = tested on: PC-3
[28] = tested on: SK-MEL-2
[29] = tested on: HCT-116
[30] = tested on: MDA-N
[31] = tested on: MCF7
[32] = tested on: RXF 393
[33] = tested on: EKVX
[34] = tested on: TK-10
[35] = tested on: Malme-3M
[36] = tested on: IGROV-1
[37] = tested on: CAKI-1
[38] = tested on: HT-29
[39] = tested on: HCC 2998
[40] = tested on: SK-OV-3
[41] = tested on: UACC-257
[42] = tested on: OVCAR-4
[43] = tested on: SF-539
[44] = tested on: A549
[45] = tested on: OVCAR-3
[46] = tested on: NCI-H522
[47] = tested on: SN12C
[48] = tested on: NCI/ADR-RES
[49] = tested on: CCRF-CEM
[50] = tested on: SNB-19
[51] = tested on: HL-60
[52] = tested on: NCI-H226
[53] = tested on: NCI-H23
[54] = tested on: HCT-15
[55] = tested on: MOLT-4
[56] = tested on: 786-0
[57] = tested on: U-251
[58] = tested on: RPMI-8226
[59] = tested on: Hs-578T

Compound: Cc1c(O)c(OC2OC(CO)C(O)C(O)C2O)cc2c1CC[C@@H]1C2(C)C(=O)C[C@]2(C)[C@@H]([C@@](C)(O)C(O)CCC(C)(C)O)[C@H](O)C[C@@]12C (stereo partly specified)
- GI50 [1]: > 100 µM (inactive)
- GI50 [2]: > 100 µM (inactive)
- GI50 [3]: > 100 µM (inactive)
- GI50 [4]: > 100 µM (inactive)
- GI50 [5]: > 100 µM (inactive)
- GI50 [6]: > 100 µM (inactive)
- GI50 [7]: > 100 µM (inactive)
- GI50 [8]: > 100 µM (inactive)
- GI50 [9]: > 100 µM (inactive)
- GI50 [10]: > 100 µM (inactive)
- GI50 [11]: > 100 µM (inactive)
- GI50 [12]: > 100 µM (inactive)
- GI50 [13]: > 100 µM (inactive)
- GI50 [14]: > 100 µM (inactive)
- GI50 [15]: > 100 µM (inactive)
- GI50 [16]: > 100 µM (inactive)
- GI50 [17]: > 100 µM (inactive)
- GI50 [18]: > 100 µM (inactive)
- GI50 [19]: > 100 µM (inactive)
- GI50 [20]: > 100 µM (inactive)
- GI50 [21]: > 100 µM (inactive)
- GI50 [22]: > 100 µM (inactive)
- GI50 [23]: > 100 µM (inactive)
- GI50 [24]: > 100 µM (inactive)
- GI50 [25]: > 100 µM (inactive)
- GI50 [26]: > 100 µM (inactive)
- GI50 [27]: > 100 µM (inactive)
- GI50 [28]: > 100 µM (inactive)
- GI50 [29]: > 100 µM (inactive)
- GI50 [30]: > 100 µM (inactive)
- GI50 [31]: > 100 µM (inactive)
- GI50 [32]: > 100 µM (inactive)
- GI50 [33]: > 100 µM (inactive)
- GI50 [34]: > 100 µM (inactive)
- GI50 [35]: > 100 µM (inactive)
- GI50 [36]: > 100 µM (inactive)
- GI50 [37]: > 100 µM (inactive)
- GI50 [38]: > 100 µM (inactive)
- GI50 [39]: > 100 µM (inactive)
- GI50 [40]: > 100 µM (inactive)
- GI50 [41]: > 100 µM (inactive)
- GI50 [42]: > 100 µM (inactive)
- GI50 [43]: > 100 µM (inactive)
- GI50 [44]: > 100 µM (inactive)
- GI50 [45]: > 100 µM (inactive)
- GI50 [46]: > 100 µM (inactive)
- GI50 [47]: > 100 µM (inactive)
- GI50 [48]: > 100 µM (inactive)
- GI50 [49]: > 100 µM (inactive)
- GI50 [50]: > 100 µM (inactive)
- GI50 [51]: > 100 µM (inactive)
- GI50 [52]: > 100 µM (inactive)
- GI50 [53]: > 100 µM (inactive)
- GI50 [54]: > 100 µM
- GI50 [55]: > 100 µM (inactive)
- GI50 [56]: > 100 µM (inactive)
- GI50 [57]: > 100 µM (inactive)

Compound: O=C(O)CC1OCC=C2CN3CCC45c6ccccc6NC4C1C2CC35 (stereo unspecified)
- GI50 [1]: > 100 µM (inactive)
- GI50 [2]: > 100 µM (inactive)
- GI50 [3]: > 100 µM (inactive)
- GI50 [4]: > 100 µM (inactive)
- GI50 [5]: > 100 µM (inactive)
- GI50 [6]: > 100 µM (inactive)
- GI50 [7]: > 100 µM (inactive)
- GI50 [8]: > 100 µM (inactive)
- GI50 [9]: > 100 µM (inactive)
- GI50 [10]: > 100 µM (inactive)
- GI50 [11]: > 100 µM (inactive)
- GI50 [12]: > 100 µM (inactive)
- GI50 [13]: > 100 µM (inactive)
- GI50 [14]: > 100 µM (inactive)
- GI50 [15]: > 100 µM (inactive)
- GI50 [16]: > 100 µM (inactive)
- GI50 [17]: > 100 µM (inactive)
- GI50 [18]: > 100 µM (inactive)
- GI50 [19]: 77.1 µM (inactive)
- GI50 [20]: > 100 µM (inactive)
- GI50 [21]: > 100 µM (inactive)
- GI50 [22]: > 100 µM (inactive)
- GI50 [23]: > 100 µM (inactive)
- GI50 [24]: > 100 µM (inactive)
- GI50 [25]: > 100 µM (inactive)
- GI50 [26]: > 100 µM (inactive)
- GI50 [27]: > 100 µM (inactive)
- GI50 [29]: > 100 µM (inactive)
- GI50 [30]: > 100 µM (inactive)
- GI50 [31]: > 100 µM (inactive)
- GI50 [32]: > 100 µM (inactive)
- GI50 [58]: > 100 µM (inactive)
- GI50 [33]: > 100 µM (inactive)
- GI50 [34]: > 100 µM (inactive)
- GI50 [36]: > 100 µM (inactive)
- GI50 [37]: > 100 µM (inactive)
- GI50 [38]: > 100 µM (inactive)
- GI50 [40]: > 100 µM (inactive)
- GI50 [41]: > 100 µM (inactive)
- GI50 [42]: > 100 µM (inactive)
- GI50 [43]: > 100 µM (inactive)
- GI50 [44]: > 100 µM (inactive)
- GI50 [45]: > 100 µM (inactive)
- GI50 [46]: > 100 µM (inactive)
- GI50 [47]: > 100 µM (inactive)
- GI50 [48]: > 100 µM (inactive)
- GI50 [49]: > 100 µM (inactive)
- GI50 [50]: > 100 µM (inactive)
- GI50 [51]: > 100 µM (inactive)
- GI50 [52]: > 100 µM (inactive)
- GI50 [53]: > 100 µM (inactive)
- GI50 [54]: > 100 µM
- GI50 [55]: > 100 µM (inactive)
- GI50 [56]: > 100 µM (inactive)
- GI50 [57]: > 100 µM (inactive)

Compound: COc1cc(/C=C/C(=O)c2ccc(O)c(OC)c2)ccc1O
- GI50 [3]: 29.1 µM (inactive)
- GI50 [7]: 20.6 µM (inactive)
- GI50 [8]: 22.9 µM (inactive)
- GI50 [10]: 20.1 µM (inactive)
- GI50 [11]: 27.2 µM (inactive)
- GI50 [14]: 17.6 µM (inactive)
- GI50 [18]: 24.8 µM (inactive)
- GI50 [19]: 24.8 µM (inactive)
- GI50 [28]: 20.3 µM (inactive)
- GI50 [59]: 17.5 µM (inactive)
- GI50 [33]: 12.3 µM (inactive)
- GI50 [34]: 46.8 µM (inactive)
- GI50 [35]: 22.3 µM (inactive)
- GI50 [40]: 13.4 µM (inactive)
- GI50 [41]: 22.5 µM (inactive)
- GI50 [42]: 24.3 µM (inactive)
- GI50 [45]: 18.7 µM (inactive)
- GI50 [46]: 14.5 µM (inactive)
- GI50 [52]: 24.5 µM (inactive)

Compound: CCOC(=O)c1ccc(/N=N/N(C)C(=O)C(C)N)cc1 (stereo unspecified)
- GI50 [1]: > 100 µM (inactive)
- GI50 [2]: > 100 µM (inactive)
- GI50 [3]: > 100 µM (inactive)
- GI50 [4]: 36.1 µM (inactive)
- GI50 [5]: 49.5 µM (inactive)
- GI50 [6]: 56.8 µM (inactive)
- GI50 [7]: > 100 µM (inactive)
- GI50 [8]: > 100 µM (inactive)
- GI50 [9]: > 100 µM (inactive)
- GI50 [10]: > 100 µM (inactive)
- GI50 [11]: 46.7 µM (inactive)
- GI50 [12]: > 100 µM (inactive)
- GI50 [14]: > 100 µM (inactive)
- GI50 [15]: 88.7 µM (inactive)
- GI50 [16]: > 100 µM (inactive)
- GI50 [17]: 98.6 µM (inactive)
- GI50 [18]: > 100 µM (inactive)
- GI50 [19]: 55.8 µM (inactive)
- GI50 [20]: > 100 µM (inactive)
- GI50 [21]: 16.7 µM (inactive)
- GI50 [22]: > 100 µM (inactive)
- GI50 [23]: > 100 µM (inactive)
- GI50 [24]: > 100 µM (inactive)
- GI50 [25]: > 100 µM (inactive)
- GI50 [26]: > 100 µM (inactive)
- GI50 [27]: > 100 µM (inactive)
- GI50 [28]: > 100 µM (inactive)
- GI50 [29]: > 100 µM (inactive)
- GI50 [30]: 78.3 µM (inactive)
- GI50 [31]: > 100 µM (inactive)
- GI50 [32]: > 100 µM (inactive)
- GI50 [58]: > 100 µM (inactive)
- GI50 [33]: > 100 µM (inactive)
- GI50 [34]: > 100 µM (inactive)
- GI50 [35]: > 100 µM (inactive)
- GI50 [36]: 72.4 µM (inactive)
- GI50 [37]: 92.5 µM (inactive)
- GI50 [38]: > 100 µM (inactive)
- GI50 [39]: > 100 µM (inactive)
- GI50 [41]: > 100 µM (inactive)
- GI50 [42]: > 100 µM (inactive)
- GI50 [43]: > 100 µM (inactive)
- GI50 [45]: > 100 µM (inactive)
- GI50 [46]: 86.5 µM (inactive)
- GI50 [47]: > 100 µM (inactive)
- GI50 [48]: > 100 µM (inactive)
- GI50 [49]: > 100 µM (inactive)
- GI50 [50]: > 100 µM (inactive)
- GI50 [51]: > 100 µM (inactive)
- GI50 [52]: > 100 µM (inactive)
- GI50 [53]: > 100 µM (inactive)
- GI50 [54]: > 100 µM
- GI50 [55]: 43.7 µM (inactive)
- GI50 [56]: > 100 µM (inactive)
- GI50 [57]: > 100 µM (inactive)
